Experimental data taken from patent US20090012172A1, “Cosmetic/pharmaceutical compositions comprising retinoids and anti-irritants and treatment of keratinization disorders therewith” (GALDERMA RESEARCH & DEVELOPMENT, priority 2005, published 2009).
Entries after “also recorded” stand apart in the source; their conditions may differ.

Legend:
ear of the BALB/c mouse [1] = assay: Tolerance study: anti-irritant in preventive treatment before topical Differin gel, ear thickness (edema); type: in vivo; conditions: anti-irritant applied before Differin gel
Protocol: The goal of the present study is to compare the irritant power of a reference gel, comprising 0.1% adapalene, when this treatment is preceded or not preceded by treatment with an anti-irritant.
(§1) The treatment consists of a daily topical application (20 μl) of anti-irritant, formulated in an aqueous/alcoholic vehicle (50% ethanol and 50% water by volume), on the internal face of the right ear of BALB/c mice divided into 15 groups (female mice approximately 9 weeks old), followed by a topical application (20 μl) of Differin® gel (reference gel comprising 0.1% adapalene) at the rate of one application of each formulation per day for 6 days.
(§2) Evaluation is carried out by measurements of the thickness of the ear by means of the Oditest and by clinical observation of the animals from the 2nd to 19th day.

ear of the BALB/c mouse [2] = assay: Study of tolerance of the formulation of Example 4 (non-split treatment), ear thickness; type: in vivo; conditions: adapalene and anti-irritant in the same formulation
Protocol: as §1, §2
A study of tolerance is carried out according to the protocol of Example 2 with the formulation of Example 4. However, the present case, in contrast to Example 2, relates to a treatment which is not split since the adapalene and the anti-irritant are present in the same formulation.

[3] = system: skin of the back of the Rhino mouse (comedones); assay: Comedolytic activity of Differin gel alone or preceded by anti-irritant on the Rhino mouse; type: in vivo, RHINO FVB/N RJ-hr (Rhino) mouse
Protocol: The goal of the present study is to compare the comedolytic activity of Differin® gel (reference gel comprising 0.1% adapalene) whether this treatment is preceded or not preceded by a treatment with an anti-irritant.
The treatment consists of a daily topical application of an aqueous/alcoholic vehicle (ethanol/water 50:50) comprising the anti-irritant potassium salt of 18β-glycyrrhetinic acid, followed 30 minutes later by an application of Differin® gel, on the skin of the back of the RHINO FVB/N RJ-hr^th (Rhino) mouse for 18 days.

Structure (SMILES)	effect on the irritation caused by Differin gel (in words) (ear of the BALB/c mouse [1])	effect on the irritation caused by Differin gel (in words) (ear of the BALB/c mouse [1]; listed as enoxolone)	anti-irritant effect (in words) (ear of the BALB/c mouse [2])	number of comedones per centimeter ([3]; back of Rhino mice after 18 days of daily topical treatment)	effect on the comedolytic activity of Differin gel (in words) ([3]; split treatment, anti-irritant 30 minutes before Differin gel, 18 days)
CC1(C)[C@@H](O)CC[C@]2(C)[C@H]3C(=O)C=C4[C@@H]5C[C@@](C)(C(=O)O)CC[C@]5(C)CC[C@@]4(C)[C@]3(C)CC[C@@H]12 [Enoxolone, 18β-Glycyrrhetinic acid]	virtually no effect	does not have an effect on the irritation due to retinoids			
CC1(C)[C@@H](O)CC[C@]2(C)[C@H]3C(=O)C=C4[C@@H]5C[C@@](C)(C(=O)[O-])CC[C@]5(C)CC[C@@]4(C)[C@]3(C)CC[C@@H]12.[K+] [Potassium salt of 18β-glycyrrhetinic acid]	effective in reducing the irritation due to adapalene; also recorded: significantly reduces the irritation		appears to be an effective anti-irritant	statistically equivalent to that of groups 1 and 3	does not reduce the comedolytic activity
